Reference: patent publication US20250213563A1, “SUBSTITUTED PYRIMIDIN-4(3H)-ONES FOR USE IN TREATING CANCER” (NAVIRE PHARMA, INC., priority 2021, published 2025)
Read-outs that look alike come from different tables or passages of the source.

Key:
NCI-H1299 = experiment: pERK protein levels (HTRF); format: cell-based; conditions: Homo sapiens; NCI-H1299, NRAS^Q61K
Experimental: (§1) The potency of Compound (10b) in a panel of human tumor cell lines with active MAPK signaling was assessed. Cell viability in a 3D culture system was assessed by measuring CellTiter-Glo (CTG) luminescence following 8 days of treatment with nine concentrations of Compound (10b). MAPK pathway signaling was assessed by measuring pERK protein levels and DUSP6 mRNA levels by homogeneous time resolved fluorescence (HTRF) and quantitative polymerase chain reaction (qPCR), respectively. […] These viability effects correlated with pERK inhibition (Table 2, FIG. 6B) and DUSP6 inhibition (FIG. 6C).

KYSE-520 = experiment: pERK protein levels (HTRF); format: cell-based; conditions: Homo sapiens; KYSE-520, EGFR^amp
Experimental: as §1

NCI-H358 = experiment: pERK protein levels (HTRF); format: cell-based; conditions: Homo sapiens; NCI-H358, KRAS^G12C
Experimental: as §1

NCI-H1975 = experiment: pERK protein levels (HTRF); format: cell-based; conditions: Homo sapiens; NCI-H1975, EGFR^L858R/T790M
Experimental: as §1

HCC827 = experiment: pERK protein levels (HTRF); format: cell-based; conditions: Homo sapiens; HCC827, EGFR^Ex19del
Experimental: as §1

[1] = tested on: panel of 419 human kinases; experiment: KINOMEscan competition binding panel; conditions: 1 μM; 419 kinases tested
Experimental: (§2) Activity of Compound (10b) (1 μM) was assessed against a panel of 419 human kinases (including a set of disease-relevant mutant variants). Assays were conducted using the KINOMEscan™ platform from DiscoverX which measures compound interaction with kinases using active site-directed competition binding assays. Displacement of ligand binding to the kinase by <35% of the control value is considered significant. Of the 419 kinases tested, only 4 kinases reached this level of displacement: Protein kinase C eta (PRKCH), 34% control; Large tumor suppressor kinase 1 (LATS1), 32% control; General control nonderepressible 2 kinase (GCN2), 21% control; and Hematopoietic Progenitor Kinase 1 (HPK1), 4.4% control.

[2] = tested on: panel of 14 full-length human phosphatases; experiment: Eurofins Panlabs spectrofluorimetric phosphatase panel; format: biochemical; conditions: 10 μM
Experimental: The activity of Compound (10b) was also assessed against a panel of 14 full-length human phosphatases using spectrofluorimetric biochemical assays. These assays were conducted using the Eurofins Panlabs platform.

[3] = biological target: T1, Protein kinase C eta (PRKCH) (Homo sapiens, UniProt P24723); experiment: KINOMEscan competition binding; conditions: read-out: ligand binding, % control
T1 construct: purchased DiscoverX (KINOMEscan platform)
T1 sequence (P24723 whole entry): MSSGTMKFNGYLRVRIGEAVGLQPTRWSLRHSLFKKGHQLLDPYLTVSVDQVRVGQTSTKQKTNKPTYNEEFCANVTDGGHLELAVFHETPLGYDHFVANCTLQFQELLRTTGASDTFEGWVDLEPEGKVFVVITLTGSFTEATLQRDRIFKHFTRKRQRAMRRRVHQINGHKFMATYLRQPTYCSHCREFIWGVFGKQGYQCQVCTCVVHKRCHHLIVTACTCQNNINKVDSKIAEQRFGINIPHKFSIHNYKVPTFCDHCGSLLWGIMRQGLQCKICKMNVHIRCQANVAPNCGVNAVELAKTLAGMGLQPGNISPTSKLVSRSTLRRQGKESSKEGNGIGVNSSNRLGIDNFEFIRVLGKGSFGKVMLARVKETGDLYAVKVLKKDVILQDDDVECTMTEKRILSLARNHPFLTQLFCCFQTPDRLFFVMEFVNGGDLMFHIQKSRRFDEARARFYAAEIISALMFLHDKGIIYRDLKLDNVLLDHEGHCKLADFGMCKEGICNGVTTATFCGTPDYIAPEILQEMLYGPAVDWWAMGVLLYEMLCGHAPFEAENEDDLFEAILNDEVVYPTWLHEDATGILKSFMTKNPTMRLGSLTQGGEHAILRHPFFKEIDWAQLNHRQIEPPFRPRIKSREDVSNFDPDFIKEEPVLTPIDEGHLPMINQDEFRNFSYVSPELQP
Experimental: as §2

[4] = biological target: T2, Large tumor suppressor kinase 1 (LATS1) (Homo sapiens, UniProt O95835); experiment: KINOMEscan competition binding; conditions: read-out: ligand binding, % control
T2 construct: purchased DiscoverX (KINOMEscan platform)
T2 sequence (O95835 whole entry): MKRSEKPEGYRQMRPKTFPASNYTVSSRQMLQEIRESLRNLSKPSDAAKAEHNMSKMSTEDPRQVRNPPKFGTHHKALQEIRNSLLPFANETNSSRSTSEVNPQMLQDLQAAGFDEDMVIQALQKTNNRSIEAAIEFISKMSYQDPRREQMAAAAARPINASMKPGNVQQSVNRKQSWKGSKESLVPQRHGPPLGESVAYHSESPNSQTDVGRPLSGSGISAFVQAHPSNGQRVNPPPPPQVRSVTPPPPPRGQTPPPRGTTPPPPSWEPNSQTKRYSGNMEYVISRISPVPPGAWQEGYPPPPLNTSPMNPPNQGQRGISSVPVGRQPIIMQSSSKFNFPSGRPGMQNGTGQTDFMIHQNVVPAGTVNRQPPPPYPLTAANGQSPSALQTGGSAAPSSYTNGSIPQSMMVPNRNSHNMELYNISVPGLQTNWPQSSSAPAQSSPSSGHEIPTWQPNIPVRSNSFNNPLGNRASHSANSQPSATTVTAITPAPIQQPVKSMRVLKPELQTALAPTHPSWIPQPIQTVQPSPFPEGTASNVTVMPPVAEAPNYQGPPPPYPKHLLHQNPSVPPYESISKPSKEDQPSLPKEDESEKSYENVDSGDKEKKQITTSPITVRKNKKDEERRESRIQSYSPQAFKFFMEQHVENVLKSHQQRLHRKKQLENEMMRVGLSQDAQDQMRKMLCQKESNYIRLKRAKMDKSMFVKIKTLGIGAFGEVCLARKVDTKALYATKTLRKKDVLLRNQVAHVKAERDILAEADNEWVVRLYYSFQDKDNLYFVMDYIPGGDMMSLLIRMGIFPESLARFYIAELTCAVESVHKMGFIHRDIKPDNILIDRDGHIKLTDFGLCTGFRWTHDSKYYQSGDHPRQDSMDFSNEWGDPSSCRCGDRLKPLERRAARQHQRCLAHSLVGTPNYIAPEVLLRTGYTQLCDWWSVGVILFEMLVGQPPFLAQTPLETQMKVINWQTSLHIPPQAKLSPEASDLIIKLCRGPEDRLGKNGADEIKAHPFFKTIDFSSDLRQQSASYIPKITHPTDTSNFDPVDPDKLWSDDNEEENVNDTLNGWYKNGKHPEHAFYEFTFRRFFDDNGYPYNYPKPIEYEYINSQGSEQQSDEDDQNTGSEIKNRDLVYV
Experimental: as §2

[5] = Single oral dose exposure in NOD/SCID mice; format: in vivo; conditions: male, mouse; for Kp at 24 h: brain; for AUC(0-inf) / Cmax: plasma
Experimental: Male NOD/SCID mice (n=3 per group) were administered a single dose of Compound (10b) at 1, 3, 10, 30, and 100 mg/kg by oral gavage. Plasma was collected at 0.25, 1, 2, 4, 8, and 24 hours after each dose, and brains were collected at 24 hours after each dose. Compound (10b) concentrations were determined with LC-MS/MS.

hERG potassium channel = hERG potassium channel (Homo sapiens, UniProt Q12809); experiment: hERG manual whole cell patch clamp in CHO cells
Sequence of hERG potassium channel (Q12809 whole entry): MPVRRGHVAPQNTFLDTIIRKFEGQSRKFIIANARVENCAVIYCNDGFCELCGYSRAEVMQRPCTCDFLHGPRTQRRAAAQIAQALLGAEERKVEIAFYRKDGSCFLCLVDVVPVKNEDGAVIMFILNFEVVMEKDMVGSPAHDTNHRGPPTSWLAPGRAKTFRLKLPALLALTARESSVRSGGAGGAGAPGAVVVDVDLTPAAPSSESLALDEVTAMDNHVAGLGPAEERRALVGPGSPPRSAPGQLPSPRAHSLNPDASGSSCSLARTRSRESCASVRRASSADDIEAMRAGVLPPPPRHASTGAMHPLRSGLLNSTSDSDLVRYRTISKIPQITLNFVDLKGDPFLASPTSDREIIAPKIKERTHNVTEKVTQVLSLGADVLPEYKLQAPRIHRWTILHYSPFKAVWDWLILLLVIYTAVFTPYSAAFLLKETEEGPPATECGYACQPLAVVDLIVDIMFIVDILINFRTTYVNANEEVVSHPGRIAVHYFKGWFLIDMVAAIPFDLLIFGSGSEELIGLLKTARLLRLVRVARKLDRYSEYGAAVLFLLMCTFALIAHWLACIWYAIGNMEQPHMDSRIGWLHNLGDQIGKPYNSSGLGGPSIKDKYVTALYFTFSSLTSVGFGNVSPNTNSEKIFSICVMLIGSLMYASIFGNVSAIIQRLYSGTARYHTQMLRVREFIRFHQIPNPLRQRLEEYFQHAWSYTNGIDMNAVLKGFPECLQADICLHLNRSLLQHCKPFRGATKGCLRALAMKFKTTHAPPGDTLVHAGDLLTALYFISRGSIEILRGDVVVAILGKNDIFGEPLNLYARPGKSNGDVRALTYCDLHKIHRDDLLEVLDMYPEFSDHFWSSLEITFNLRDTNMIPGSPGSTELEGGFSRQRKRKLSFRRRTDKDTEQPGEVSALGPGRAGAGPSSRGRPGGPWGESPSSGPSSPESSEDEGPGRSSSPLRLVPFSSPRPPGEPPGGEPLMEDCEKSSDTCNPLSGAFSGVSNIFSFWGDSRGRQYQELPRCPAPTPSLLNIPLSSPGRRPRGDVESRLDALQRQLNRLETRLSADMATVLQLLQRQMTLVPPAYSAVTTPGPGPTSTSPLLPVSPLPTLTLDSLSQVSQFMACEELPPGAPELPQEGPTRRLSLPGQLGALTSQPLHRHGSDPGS
Experimental: HERG channel currents were recorded from single cells using standard whole cell recording techniques. The cells were voltage clamped at a holding potential of −80 mV. The hERG current was activated by depolarizing at +20 mV for 5 sec, after which the current was taken back to −50 mV for 5 sec to remove the inactivation and observe the deactivating tail current. The K+ tail current through HERG channels observed during this step was allowed to stabilize under continuous bath perfusion. […] Steady state was considered reached when three consecutive super-imposable current records were collected.

[6] = tested on: KYSE-520 xenograft tumors; experiment: Pharmacodynamics in KYSE-520 xenograft tumors (DUSP6 / MPAS-plus mRNA); format: in vivo, NSG mice; conditions: for IC50: Mus musculus, KYSE-520, plasma concentration
Experimental: KYSE-520 (EGFRamp) cells were subcutaneously implanted in NSG mice and allowed to grow to an average tumor volume of 340 mm^3 as monitored by caliper measurements. At this point, animals were randomized and treated with vehicle, Compound (10b) 25 mg/kg or Compound (10b) 100 mg/kg PO. Plasma and tumor samples were harvested 4, 16 and 24 hours after a single dose. Compound (10b) plasma concentration and tumor pERK levels were determined. Data represent mean±SEM. N=4 mice per group.
In addition to DUSP6 mRNA levels, other MAPK pathway genes were examined through sequencing analysis. The MPAS (MAPK pathway activity score) signature is a signature of 10 genes that reflects MAPK pathway activity. This gene signature has been used in the clinic to evaluate the pharmacodynamic effect of the ERK inhibitor GDC-0994 in tumors. Based on the MPAS signature, a 13-gene signature (“MPAS-plus”) was developed, which includes the 10 MPAS genes and three additional MAPK-targeted genes (ETV1, EGR1 and FOSL1) that are modulated by SHP2 inhibitors across multiple cell line models (data not shown).

Cc1c(N2CCC3(CC2)CO[C@@H](C)[C@H]3N)nc(C)n(-c2cccc(Cl)c2Cl)c1=O (atropisomer, axis not shown; (Ra)) [Compound (10b), 6-((3S,4S)-4-amino-3-methyl-2-oxa-8-azaspiro[4.5]decan-8-yl)-3-(Ra)-(2,3-dichlorophenyl)-2,5-dimethylpyrimidin-4(3H)-one]
IC50 (NCI-H1299): > 25000 nM
IC50 (KYSE-520): 73 nM
IC50 (NCI-H358): 480 nM
IC50 (NCI-H1975): 400 nM
IC50 (HCC827): 460 nM
number of kinases with displacement <35% of control [1]: 4
inhibition of phosphatases [2]: No significant inhibition
remaining ligand binding at 1 µM [3]: 34%
remaining binding at 1 µM [4]: 32%
Kp at 24 h ([5]; oral, mean over doses 1-100 mg/kg, read-out: mean total brain/plasma level at 24 hours): 0.33
Kp at 24 h ([5]; single oral dose 1 mg/kg, read-out: total brain/plasma levels at 24 hours): 0.35
Kp at 24 h ([5]; single oral dose 3 mg/kg, read-out: total brain/plasma levels at 24 hours): 0.31
Kp at 24 h ([5]; single oral dose 10 mg/kg, read-out: total brain/plasma levels at 24 hours): 0.3
Kp at 24 h ([5]; single oral dose 30 mg/kg, read-out: total brain/plasma levels at 24 hours): 0.31
Kp at 24 h ([5]; single oral dose 100 mg/kg, read-out: total brain/plasma levels at 24 hours): 0.37
AUC(0-inf) ([5]; single oral dose 1 mg/kg): 1030 ng·h/mL
Cmax ([5]; single oral dose 1 mg/kg): 160 ng/mL
AUC(0-inf) ([5]; single oral dose 3 mg/kg): 3530 ng·h/mL
Cmax ([5]; single oral dose 3 mg/kg): 507 ng/mL
AUC(0-inf) ([5]; single oral dose 10 mg/kg): 13000 ng·h/mL
Cmax ([5]; single oral dose 10 mg/kg): 2030 ng/mL
AUC(0-inf) ([5]; single oral dose 30 mg/kg): 30600 ng·h/mL
Cmax ([5]; single oral dose 30 mg/kg): 4870 ng/mL
AUC(0-inf) ([5]; single oral dose 100 mg/kg): 123000 ng·h/mL
Cmax ([5]; single oral dose 100 mg/kg): 13900 ng/mL
IC50 (hERG potassium channel): > 100000 nM
inhibition of hERG activity relative to vehicle control (hERG potassium channel; 100 μM): 25.7%
effect on hERG channel activity (hERG potassium channel; 0.3 to 30 μM): no effect
suppression of DUSP6 mRNA levels in tumors ([6]; 25 mg/kg PO, 4-hour after a single dose): > 90%
suppression of DUSP6 mRNA levels in tumors ([6]; 25 mg/kg PO, 16-hour after a single dose): < 50%
suppression of DUSP6 mRNA levels in tumors ([6]; 25 mg/kg or 100 mg/kg PO, 24-hour after a single dose): neither treatment significantly suppressed
suppression of DUSP6 mRNA levels in tumors ([6]; 100 mg/kg PO, 4-hour after a single dose): > 90%
suppression of DUSP6 mRNA levels in tumors ([6]; 100 mg/kg PO, 16-hour after a single dose): > 50%
IC50 ([6]; PK/PD relationship, read-out: in vivo IC50): 1500 nM
IC50 ([6]; read-out: KYSE-520 xenograft DUSP6 IC50): 0.656 µg/mL
Cmax ([6]; prediction used as reference line for human plasma levels, read-out: predicted efficacious Cmax): 5.3 µM
suppression of the MPAS-plus signature in the tumor ([6]; single oral dose or five doses, 25 mg/kg or 100 mg/kg): dose- and time-dependent suppression
